Reference: patent publication US10464963B2, “Compounds from invasive Salvinias and methods of using the same” (STEPHEN F. AUSTIN STATE UNIVERSITY, priority 2013, dated 2019)
Where two headings read alike, the source gives them in different places.

Assays:
[1] = test system: human prostate cancer (PC-3); test: Cytotoxicity assay (WST-8), PC-3; assay type: cell-based
Description: (§1) PANC-1 and MRC-5 was cultured in complete growth medium according to the ATCC protocols. Cells were grown at 37° C. and 5% CO2 in humidified air.
(§2) Cytotoxicity of total extracts of S. molesta was tested against PANC-1, A549, PC-3, and MRC-5. Cytotoxicity of the fractions was determined using A549 cells, a human non-small lung cancer cell line. Fractions were tested at 25, 50, and 100 μg/mL. The isolated pure compounds were tested in each of the cultured human tumor and normal cell lines at various concentrations between 1 and 100 μM with three replications. Human tumor and normal cells were inoculated into 96 well microtiter plates in 90 μL at plating densities ranging from 5,000 to 40,000 cells/well (measured by Z2 Coulter Counter of Beckman) depending on the doubling time of individual cell lines. Cell growth and viability was measured by WST-8 (Water Soluble Tetrazolium) assays following a standard protocol (Cell Counting Kit-8, Dojindo Molecular, Maryland). The WST-8 assay measured the relative activity of mitochondrial reductase enzymes in viable cells. A control WST reading (T0) before treatment was measured, then cells were continuously exposed to isolates for 48 h. After WST added and incubated for 2 h, the amount of formazan was measured by using a microplate spectrophotometer (μQuant spectrophotometer, Bio-Tek Instruments, Inc., Vermont) at 450 nm. TC or TD represents the readings of the untreated control or with tested compounds. Percent cell-growth (G) and percent cell-growth inhibition (GI) was calculated as: G=(TD−T0/TC−T0)×100; GI=[1−(TD−T0/TC−T0)]×100 for which TD≥T0; and G=(TD−T0/T0)×100; GI=[1−(TD−T0/T0)]×100 for which TD≤T0. […] Cancer drug doxorubicin was used as the positive controls in the cell-based assays.

[2] = Cytotoxicity assay (WST-8), MRC-5; assay type: cell-based, human; settings: human
Description: as §1, §2

[3] = test system: human non-small cell lung cancer (A549); test: Cytotoxicity assay (WST-8), A549; assay type: cell-based
Description: as §1, §2

human leukemia (HL-60) = test: Cytotoxicity assay (WST-8), HL-60; assay type: cell-based
[4] = test system: human exocrine pancreatic cancer (BxPC-3); test: Cytotoxicity assay (WST-8), BxPC-3; assay type: cell-based
[5] = test system: human exocrine pancreatic cancer (PANC-1); test: Cytotoxicity assay (WST-8), PANC-1; assay type: cell-based
Description: as §1, §2

[6] = test system: normal human lung fibroblasts cells (MRC-5); test: Cytotoxicity assay (WST-8), MRC-5; assay type: cell-based
Description: as §1, §2

[7] = Homo sapiens, 48 h, read-out: Cytotoxic activity (GI50) PC-3
[8] = Homo sapiens, Table 1, read-out: Activity against human prostate tumor PC-3 (GI50) (converted)
[9] = Homo sapiens, A549, 48 h, read-out: Cytotoxic activity (GI50) A549
[10] = Homo sapiens, A549, Table 1, read-out: Activity against human non-small cell lung tumor A549 (GI50) (converted)
[11] = Homo sapiens, HL-60, 48 h, read-out: Cytotoxic activity (GI50) HL-60
[12] = Homo sapiens, HL-60, Table 1, read-out: Activity against human leukemia HL-60 (GI50) (converted)
[13] = Homo sapiens, BXPC-3, 48 h, read-out: Cytotoxic activity (GI50) BxPC-3
[14] = Homo sapiens, BXPC-3, Table 1, read-out: Activity against human exocrine pancreatic tumor BxPC-3 (GI50) (converted)
[15] = Homo sapiens, PANC-1, 48 h, read-out: Cytotoxic activity (GI50) PANC-1
[16] = Homo sapiens, PANC-1, Table 1, read-out: Activity against human exocrine pancreatic tumor PANC-1 (GI50)
[17] = Homo sapiens, Table 7, WST-8, 48 h exposure, mean ± S.D., read-out: Cytotoxic activity (GI50) PC-3
[18] = Homo sapiens, A549, Table 7, WST-8, 48 h exposure, mean ± S.D., read-out: Cytotoxic activity (GI50) A549
[19] = Homo sapiens, HL-60, Table 7, WST-8, 48 h exposure, mean ± S.D., read-out: Cytotoxic activity (GI50) HL-60
[20] = Homo sapiens, BXPC-3, Table 7, WST-8, 48 h exposure, mean ± S.D., read-out: Cytotoxic activity (GI50) BxPC-3
[21] = Homo sapiens, PANC-1, Table 7, WST-8, 48 h exposure, mean ± S.D., read-out: Cytotoxic activity (GI50) PANC-1
[22] = Table 7, WST-8, 48 h exposure, mean ± S.D., read-out: Cytotoxic activity (GI50) PC-3
[23] = Table 7, WST-8, 48 h exposure, mean ± S.D., read-out: Cytotoxic activity (GI50) A549
[24] = Table 7, WST-8, 48 h exposure, mean ± S.D., read-out: Cytotoxic activity (GI50) HL-60
[25] = Table 7, WST-8, 48 h exposure, mean ± S.D., read-out: Cytotoxic activity (GI50) BxPC-3
[26] = Table 7, WST-8, 48 h exposure, mean ± S.D., read-out: Cytotoxic activity (GI50) PANC-1

CC(C)c1cc2c(cc1O)[C@@]1(C)CCCC(C)(C)C1C=C2 (stereo partly shown) [Compound 16, 6,7-dehydroferruginol]
GI50 [1, 7]: 58.1 ± 3.28 µM | GI50 [1, 8]: 58.1 µM | GI50 at 48 h [2]: 59.2 ± 7.56 µM | GI50 [3, 9]: 53.8 ± 9.65 µM | GI50 [3, 10]: 53.8 µM | GI50 (human leukemia (HL-60); [11]): 66.52 ± 0.04 µM | GI50 (human leukemia (HL-60); [12]): 66.5 µM | GI50 [4, 13]: 37.5 ± 4.01 µM | GI50 [4, 14]: 37.5 µM | GI50 [5, 15]: 46.7 ± 11 µM | GI50 [5, 16]: 46.7 µM

CC(C)c1cc2ccc3c(c2cc1O)CCCC3(C)C [Compound 17, 12-hydroxy simonellite]
GI50 [1, 8]: 43.6 µM | GI50 [1, 17]: 43.6 ± 11.9 µM | GI50 ([6]; human, 48 h): 55.4 ± 4.94 µM | GI50 [3, 10]: 42.2 µM | GI50 [3, 18]: 42.2 ± 3.89 µM | GI50 (human leukemia (HL-60); [12]): 50 µM | GI50 (human leukemia (HL-60); [19]): 50 ± 15.2 µM | GI50 [4, 14]: 36.4 µM | GI50 [4, 20]: 36.4 ± 8.08 µM | GI50 [5, 16]: 37.5 µM | GI50 [5, 21]: 37.5 ± 5.72 µM

CC(C)c1ccc2c3c(ccc2c1)C(C)(C)CCC3 [Compound 18, simonellite]
GI50 [1, 22]: > 100 µM | GI50 [6]: > 100 µM | GI50 [3, 23]: > 100 µM | GI50 (human leukemia (HL-60); [24]): > 100 µM | GI50 [4, 25]: > 100 µM | GI50 [5, 26]: > 100 µM

CC(C)C1=Cc2ccc3c(c2C(=O)C1=O)C(=O)CCC3(C)C [Compound 19, 1-oxomiltirone]
GI50 [1, 22]: 19 ± 5.34 µM | GI50 [6]: 20.4 ± 3.36 µM | GI50 [3, 23]: 24.9 ± 5.94 µM | GI50 (human leukemia (HL-60); [24]): 23.3 ± 6.66 µM | GI50 [4, 25]: 20.5 ± 2 µM | GI50 [5, 26]: 32.1 ± 2.75 µM

CC(C)C1=C(O)C(=O)C2=C(CC[C@H]3C(C)(C)CCC[C@]23C)C1=O [Compound 20, royleanone]
GI50 [1, 17]: 27.1 ± 11.8 µM | GI50 at 48 h [2]: 45.7 ± 2.32 µM | GI50 [3, 18]: 30.1 ± 3.64 µM | GI50 (human leukemia (HL-60); [19]): 36.3 ± 7.14 µM | GI50 [4, 14]: 51 µM | GI50 [4, 20]: 51 ± 10.4 µM | GI50 [5, 16]: 52.6 µM | GI50 [5, 21]: 52.6 ± 18.8 µM

CC(C)C1=C(O)C(=O)C2=C(C=CC3C(C)(C)CCC[C@]23C)C1=O (stereo partly shown) [Compound 21, 6,7-dehydroroyleanone]
GI50 [1, 7]: 46.3 ± 6.6 µM | GI50 ([1]; Homo sapiens, read-out: Activity against human prostate tumor PC-3 (GI50)): 46.3 µM | GI50 at 48 h ([2]; Table 7, normal lung cells, WST-8, 48 h exposure, mean ± S.D., read-out: Cytotoxic activity (GI50) MRC-5): 40.2 ± 2.06 µM | GI50 [3, 9]: 48 ± 7.75 µM | GI50 ([3]; Homo sapiens, A549, read-out: Activity against human non-small cell lung tumor A549 (GI50)): 48 µM | GI50 (human leukemia (HL-60); [11]): 30 ± 8.3 µM | GI50 (human leukemia (HL-60); Homo sapiens, HL-60, read-out: Activity against human leukemia HL-60 (GI50)): 30 µM | GI50 [4, 13]: 41.7 ± 2.92 µM | GI50 ([4]; Homo sapiens, BXPC-3, read-out: Activity against human exocrine pancreatic tumor BxPC-3 (GI50)): 41.7 µM | GI50 [5, 15]: 51.3 ± 10 µM | GI50 ([5]; Homo sapiens, PANC-1, read-out: Activity against human exocrine pancreatic tumor PANC-1 (GI50)): 51.3 µM

CC(C)c1cc(C=O)c([C@@]2(C)CCCC(C)(C)[C@H]2C=O)cc1O [Compound 22, 12-hydroxy-6,7-secoabieta-8,11,13-triene-6,7-dial]
GI50 [3, 9]: 93.8 ± 21.4 µM | GI50 [3, 10]: 93.8 µM
